Source: US4960867A, “Leiurus quinquestriatus venom peptide inhibitor of calcium activated potassium channels” (priority 1989, dated 1990)

Test system: high conductance Ca2+-activated K+ channel
Assay type: biochemical
Description: Single Ca^2+ -activated K^+ channel currents were monitored in excised membrane patches derived from either bovine aortic smooth muscle cells or GH3 anterior pituitary cells.
Channel recordings were made by conventional patch clamp procedures as previously described by Hamil, O. P., et al. Using a micromanipulator, a glass micropipette (fabricated from soda lime glass, 5-10 m.OMEGA. resistance; containing 150 mM potassium chloride, 2 mM magnesium chloride, 1 5 μM calcium chloride, 10 mM HEPES, pH 7.3) was positioned on the surface of the cell, slight negative pressure was applied and the formation of a high resistance seal between the plasma membrane and pipette was monitored. Seals of 10-50×10^9 .OMEGA. were required for subsequent measurements.
After attaining such a seal, the cell membrane was ruptured by application of a rapid negative pressure pulse and the electrode was pulled away from the cell to form an outside-facing-out excised patch at the tip of the electrode. The presence of Ca^2+ -activated K^+ channels was then determined, and such activity could be recorded in excised patches for up to two hours. Recordings were made at a holding potential of 0 to +20 mV in a bathing medium consisting of 150 mM sodium chloride, 10 mM HEPES, pH 7.3. […]

## CC[N+](CC)(CC)CC [tetraethylammonium ion]
  block of channel activity: rapid reversible block
